What all share (test): inhibition of tumour cell growth, NCI panel, 48 h
Test [1] relates to HOP-62 NSCLC.
In test [2] the test system is HCC-2998 colon.
Test [3] has as its system HT29 colon.
Test [4] has as its system HCT-116 colon.
In test [5] the test system is PC-3 prostate.
Test [6] concerns SK-OV-3 ovarian.
Test [7] deals with NCI-H226 lung.
Test [8] concerns KM12 colon.
For test [9], the system named is OVCAR-4 ovarian.
Test [10] has as its system IGROV1 ovarian.
Test [11] concerns K-562 leukemia.
Test [12] has as its system MCF7 breast.
Test [13] deals with HCT-15 colon.
Test [14] relates to A498 renal.

Structures are written as SMILES.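 Method: 48-hour compound exposure of cells in 96-well plates, five concentrations, linear interpolation of endpoints. TGI denotes the concentration required for complete inhibition of growth.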

As to `Cc1cc(N(C)c2ccccc2)nc(N(C)c2ccccc2)n1`, the TGI in [1] is 72.8 µM; in test [2] it was 79.6 µM; in test [3] it was 39 µM; in test [4] it was 37.6 µM; in test [5] it was over 100 µM; in [6] it was over 100 µM. Further, the TGI is 96 µM in [7]; 45.7 µM in test [8]; over 100 µM in test [9]; over 100 µM in test [10]; over 100 µM in [11]; 68.4 µM in test [12]. Further, the TGI in test [13] and in test [14] was over 100 µM each time.

On to `C[C@H]1[C@H]2[C@H](C[C@@]3(C)C4=CC[C@H]5C(C)(C)[C@@H](OC6OCC(O)C(O)C6O)CC[C@@]56C[C@@]46CC[C@]23C)O[C@@]2(O)[C@@H]1OC(C)(C)[C@H]2O` (stereo partly specified), for which the TGI in [1] is 5.7 µM; in [2], 1.45 µM; in [3] it was 8.97 µM; in [4], 4.21 µM; in [5] it was 2.32 µM; in test [6] it was 4.55 µM. Also, the TGI in test [7] came out at 6.73 µM; in test [8], 4.12 µM; in [9] it was 7.17 µM; in test [10], 1.85 µM; in test [11] it was 50 µM; in [12], 1.72 µM. Besides, the TGI in [13] was 3.43 µM; in [14], 4.95 µM.

As for `CSc1ncc2c(C#N)c3n(C)c4ccccc4n3c(=O)c2n1`, the TGI in [1], in test [2], in test [3], in test [4], in test [5] and in test [6] was over 100 µM throughout. For the same molecule, the TGI in [7], in test [8], in [9], in test [10], in test [11] and in test [12] was over 100 µM each time. In addition, the TGI in test [13] and in test [14] was over 100 µM throughout.

As to `CNc1ccc(C)cc1S(=O)(=O)c1ccccc1[N+](=O)[O-]`, the TGI in [1], in test [2], in test [3], in test [4], in test [5] and in test [6] was over 100 µM in each case. For the same molecule, the TGI was over 100 µM in [7]; over 100 µM in test [8]; 92 µM in test [9]; over 100 µM in test [10]; over 100 µM in test [11]; 65 µM in [12]. For the same molecule, the TGI in test [13] and in test [14] was over 100 µM in each case.

For the molecule `CN(C)/C=N/c1cc(=O)n(C)c(=O)n1C`, the TGI in [1], in test [2], in test [3], in test [4], in [5] and in [6] was over 100 µM each time. Moreover, the TGI in [7], in test [8], in [9], in [10], in [11] and in test [12] was over 100 µM in each case. The TGI in test [13] and in test [14] was over 100 µM each time.

As for `O=C(O[C@H](/C=C/c1ccccc1)P1(=O)N(Cc2ccccc2)[C@H]2CCCC[C@@H]2N1Cc1ccccc1)c1ccccc1`, the TGI in [1] was over 100 µM; in test [2], over 100 µM; in test [3], over 100 µM; in test [4], 17 µM; in [5], over 100 µM; in [6], over 100 µM. The TGI in test [7] was 7.85 µM; in test [8], 18.1 µM; in test [9] it was 6.19 µM; in test [10], 18.6 µM; in test [11], over 100 µM; in [12] it was over 100 µM. For the same molecule, the TGI in [13] and in test [14] was over 100 µM each time.

As to `C=C(Cl)[C@](Cl)(CBr)CC[C@@H](Br)C(C)(C)Cl`, the TGI came out at 0.9 µM in test [1]; 2.93 µM in test [2]; 2.06 µM in test [3]; 1.38 µM in test [4]; 1.18 µM in [5]; 25.3 µM in test [6]. The TGI is 32.8 µM in test [7]; 2.26 µM in test [8]; 3.44 µM in test [9]; 21.2 µM in [10]; 16.3 µM in test [11]; 2.18 µM in [12]. Also, the TGI in [13] was 4.64 µM; in test [14] it was 3.41 µM.

In the case of `S=c1[nH]nc(COc2ccc(Cl)cc2)n1-c1ccccc1`, the TGI in [1], in test [2], in test [3], in [4], in test [5] and in [6] was over 100 µM in each case. For the same molecule, the TGI in test [7], in [8], in [9], in test [10], in [11] and in [12] was over 100 µM each time. Moreover, the TGI in test [13] and in [14] was over 100 µM each time.

With `Cc1c(CN2CCOCC2)c(CN2CCOCC2)c(C)n1-c1ccc(Cl)cn1`, the TGI in test [1], in [2], in test [3], in test [4], in [5] and in test [6] was over 100 µM in each case. In addition, the TGI in test [7], in test [8], in [9], in test [10], in [11] and in [12] was over 100 µM each time. In addition, the TGI in test [13] and in test [14] was over 100 µM each time.

In the case of `O=C1CC(=O)NC(=NN2C(=O)CSC2c2ccc(Cl)cc2)N1` (stereo unspecified), the TGI in [1] is 60.9 µM; in test [2] it was over 100 µM; in test [3] it was over 100 µM; in test [4] it was over 100 µM; in test [5], over 100 µM; in [6], over 100 µM. The TGI in [7], in test [8], in [9], in test [10], in [11] and in test [12] was over 100 µM in each case. In addition, the TGI in [13] and in test [14] was over 100 µM in each case.

With `COC(=O)C1=C(N)C2=C(N)Oc3ccccc3C2CC1=C(C#N)C#N` (stereo unspecified), the TGI in [1] is over 100 µM; in test [2], 32.9 µM; in test [3] it was 53.3 µM; in [4], 99.2 µM; in test [5] it was over 100 µM; in [6], over 100 µM. Also, the TGI in test [7] was over 100 µM; in test [8] it was 29.5 µM; in test [9], 76.1 µM; in [10], 48.4 µM; in test [11], 57.3 µM; in test [12], 93.1 µM. In addition, the TGI was 36.8 µM in test [13] and 68.6 µM in test [14].

`COC(=O)c1ccccc1C1CN=NC12Cc1cc3c(cc1C2=O)CCC3` (stereo unspecified): the TGI in [1], in test [2], in [3], in test [4], in test [5] and in test [6] was over 100 µM in each case. Moreover, the TGI in test [7], in test [8], in test [9], in [10], in [11] and in test [12] was over 100 µM each time. In addition, the TGI in [13] and in test [14] was over 100 µM each time.

Take `C[Si](C)(C)CCOCN(C(=O)C1=CCC2(CC1)OCCO2)c1ccccc1I`: the TGI was 42.1 µM in test [1]; 50.5 µM in test [2]; over 100 µM in test [3]; 44.8 µM in test [4]; 27 µM in test [5]; 33.4 µM in test [6]. Besides, the TGI in test [7] was 53.8 µM; in test [8], 38.3 µM; in [9] it was 45.5 µM; in [10] it was 42.9 µM; in test [11], over 100 µM; in test [12], 34.4 µM. Moreover, the figures for the TGI in [13] and in test [14] were 41.6 µM and 27.3 µM, respectively.

As to `COC1=CC(=O)C2=C(C1=O)[C@H]1CC[C@]3(C)C(=O)CC[C@H]3[C@@H]1CC2`, the TGI in test [1] is over 100 µM; in test [2], over 100 µM; in test [3] it was 75.3 µM; in test [4], 34.1 µM; in test [5], 85.2 µM; in test [6] it was over 100 µM. For the same molecule, the TGI was 49.7 µM in test [7]; over 100 µM in test [8]; 29.5 µM in test [9]; 44.5 µM in test [10]; over 100 µM in test [11]; 35.4 µM in [12]. For the same molecule, the TGI in [13] and in test [14] was over 100 µM throughout.

On to `CCc1n[nH]c(=O)n1-n1c(C)ccc1C`, for which the TGI in test [1], in [2], in test [3], in [4], in [5] and in test [6] was over 100 µM each time. In addition, the TGI in [7], in test [8], in test [9], in [10], in test [11] and in [12] was over 100 µM throughout. The TGI in [13] and in [14] was over 100 µM each time.

`CC(=O)O[C@H]1[C@@H](OC2CCCC2(c2ccccc2)c2ccccc2)O[N+]([O-])=C[C@@H]1c1ccccc1` (stereo partly specified): the TGI turned out to be 38.2 µM in test [1]; 27.2 µM in test [2]; 6.94 µM in test [3]; 10.5 µM in [4]; 21.2 µM in [5]; 29 µM in [6]. Moreover, the TGI in test [7] was 80.2 µM; in test [8] it was 23.4 µM; in test [9], 21.4 µM; in test [10], 7.61 µM; in test [11], over 32.9 µM; in [12], 11.3 µM. Moreover, the TGI in [13] stood at 16.7 µM; in [14], 23.4 µM.

Take `O=C(NCCc1ccccn1)c1ccc2cc(C(=O)N3CC(CCl)c4ccc([N+](=O)[O-])cc43)[nH]c2c1` (stereo unspecified): the TGI in test [1] was 48.4 µM; in [2], over 100 µM; in test [3], over 100 µM; in [4], over 100 µM; in test [5] it was over 100 µM; in test [6], 46 µM. In addition, the TGI in test [7] is over 100 µM; in test [8], over 100 µM; in test [9] it was 48.3 µM; in test [10] it was over 100 µM; in [11] it was over 100 µM; in [12], over 100 µM. Moreover, the TGI in [13] and in [14] was over 100 µM in each case.

As for `O=[N+]([O-])c1ccc(C2=NOC(c3ccccc3)N2C23CC4CC(CC(C4)C2)C3)cc1` (stereo unspecified), the TGI in test [1] was 80.2 µM; in test [2] it was over 100 µM; in test [3] it was 44.6 µM; in [4], 63.9 µM; in test [5], 43.8 µM; in test [6], over 100 µM. Moreover, the TGI in [7] is 89.9 µM; in test [8] it was 71.9 µM; in test [9], over 100 µM; in test [10], 72.5 µM; in test [11], 39.9 µM; in [12] it was 60.1 µM. Moreover, the TGI in test [13] and in test [14] was over 100 µM each time.

`O=C(O)CCC1C(=O)C2CCN1CC2` (stereo unspecified): the TGI in test [1], in test [2], in test [3], in test [4], in test [5] and in test [6] was over 100 µM each time. Further, the TGI in test [7], in test [8], in test [9], in [10], in test [11] and in test [12] was over 100 µM in each case. The TGI in test [13] and in test [14] was over 100 µM each time.

The values are drawn from PubChem BioAssay (NCI).
